According to PubChem BioAssay AID276 (DTP/NCI, 2004):
Several values for one entry are separate records, joined by “and”; a condition that tells them apart may be missing. Equal entries are not always repeated. Inconclusive results and toxic doses are left out.

System: B6C3F1 mice, Lewis lung carcinoma iv, survival T/C
Assay: NCI In Vivo Anticancer Drug Screen. Data for tumor model Lewis Lung Carcinoma (intravenous) in B6C3F1 mice
Conditions: endpoint: median survival time, schedule: Q01DX009 (ip), higher = longer survival
Procedure, shortened: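 Mice carrying transplanted tumors received test compound; survival in the treated group was divided by that of the vehicle-treated control group to give the T/C value.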

[1] = dose: 25.0 mg/kg/injection, vehicle: water
[2] = dose: 50.0 mg/kg/injection, vehicle: water
[3] = dose: 12.5 mg/kg/injection, vehicle: Klucel (hydroxypropylcellulose) (HPC)
[4] = dose: 25.0 mg/kg/injection, vehicle: Klucel (hydroxypropylcellulose) (HPC)
[5] = dose: 50.0 mg/kg/injection, vehicle: Klucel (hydroxypropylcellulose) (HPC)
[6] = dose: 100.0 mg/kg/injection, vehicle: Klucel (hydroxypropylcellulose) (HPC)
[7] = dose: 12.5 mg/kg/injection, vehicle: saline with Tween-80
[8] = dose: 25.0 mg/kg/injection, vehicle: saline with Tween-80
[9] = dose: 50.0 mg/kg/injection, vehicle: saline with Tween-80
[10] = dose: 6.25 mg/kg/injection, vehicle: saline with Tween-80
[11] = dose: 100.0 mg/kg/injection, vehicle: water
[12] = dose: 200.0 mg/kg/injection, vehicle: water
[13] = dose: 400.0 mg/kg/injection, vehicle: water
[14] = dose: 800.0 mg/kg/injection, vehicle: water
[15] = dose: 6.25 mg/kg/injection, vehicle: saline
[16] = dose: 12.5 mg/kg/injection, vehicle: saline
[17] = dose: 50.0 mg/kg/injection, vehicle: saline
[18] = dose: 100.0 mg/kg/injection, vehicle: saline
[19] = dose: 12.0 mg/kg/injection, vehicle: saline
[20] = dose: 200.0 mg/kg/injection, vehicle: Klucel (hydroxypropylcellulose) (HPC)
[21] = dose: 25.0 mg/kg/injection, vehicle: saline

For COc1ccc(OC)c(Cc2cnc3nc(N)nc(N)c3c2C)c1, the T/C (dose: 6.25 mg/kg/injection, vehicle: water) was 104 % of control, the T/C (dose: 12.5 mg/kg/injection, vehicle: water) was 112 % of control and the T/C [1] was 100 % of control. The T/C [2] was 92 % of control.
In the case of COc1ccc2[nH]c3c(c2c1)CCNC3CC(C)CCC=C(C)C (stereo not given), the T/C (dose: 6.25 mg/kg/injection, vehicle: Klucel (hydroxypropylcellulose) (HPC)) is reported as 98 % of control, the T/C [3] is reported as 98 % of control and the T/C [4] is reported as 92 % of control. The T/C [5] was 103 % of control and the T/C [6] was 105 % of control.
For O=C(Nc1ccccc1)c1c(O)[nH]c(=S)[nH]c1=O, the T/C [7] was 103 % of control, the T/C [8] was 106 % of control and the T/C [9] was 115 % of control.
In the case of Nc1ccc2c(c1)CN1C(=O)c3ccccc3C1=N2, the T/C [8] is reported as 117 % of control and the T/C [9] is reported as 116 % of control.
With CN(C)/N=N/c1nc[nH]c1C(N)=O the T/C [3] was 229 % of control.
In the case of CCC1CCCCN1C(=S)N/N=C(\C)c1ccccn1 (stereo not given), the T/C [10] is reported as 101 % of control, the T/C [7] is reported as 115 % of control and the T/C [8] is reported as 104 % of control.
CC(=O)OC1C(O)C(C)OC(OC2C(OC(=O)C3CCC4C(C3)OC3(CC(OC(=O)/C=C/c5ccccc5)C(C)CO3)C43CO3)OC(C)C(O)C2OC(C)=O)C1O (stereo not given) was tested, and the T/C (dose: 1.0 mg/kg/injection, vehicle: distilled water + Tween-80) was 105 % of control, the T/C (dose: 2.0 mg/kg/injection, vehicle: distilled water + Tween-80) was 99 % of control and the T/C (dose: 4.0 mg/kg/injection, vehicle: distilled water + Tween-80) was 100 % of control. The T/C (dose: 8.0 mg/kg/injection, vehicle: distilled water + Tween-80) was 102 % of control and the T/C (dose: 16.0 mg/kg/injection, vehicle: distilled water + Tween-80) was 91 % of control.
OC1OC2COC(c3ccccc3)OC2C(O)C1O (stereo not given) was tested, and the T/C [1] was 101 % of control, the T/C [2] was 99 % of control and the T/C [11] was 98 % of control. The T/C [12] was 101 % of control, the T/C [13] was 99 % of control and the T/C [14] was 93 % of control.
In the case of Nc1ncnc2c1nnn2C1OC(CO)C(O)C1O (stereo not given), the T/C [3] is reported as 110 % of control, the T/C [4] is reported as 103 % of control and the T/C [5] is reported as 105 % of control.
In the case of CC1/C=C/C=C/CC/C=C/C=C/C=C/C=C/C(OC2OC(C)C(O)C(N)C2O)CC2OC(CC(O)C(O)CCC(O)CC(O)CC(O)CC(=O)OC(C)C(C)C1O)CC(O)C2C(=O)O (stereo not given), the T/C [10] is reported as 103 % of control, the T/C [7] is reported as 103 % of control and the T/C [8] is reported as 98 % of control. The T/C [9] was 101 % of control.
For Nc1nncs1, the T/C (dose: 15.19 mg/kg/injection, vehicle: Klucel (hydroxypropylcellulose) (HPC)) was 106 % of control, the T/C (dose: 20.25 mg/kg/injection, vehicle: Klucel (hydroxypropylcellulose) (HPC)) was 100 % of control and the T/C (dose: 27.0 mg/kg/injection, vehicle: Klucel (hydroxypropylcellulose) (HPC)) was 113 % of control. The T/C (dose: 36.0 mg/kg/injection, vehicle: Klucel (hydroxypropylcellulose) (HPC)) was 103 % of control and 116 % of control and the T/C (dose: 48.0 mg/kg/injection, vehicle: Klucel (hydroxypropylcellulose) (HPC)) was 103 % of control.
For O=C(/C=C(\Cl)C(=O)NO)NO, the T/C [15] was 115 % of control, the T/C [16] was 112 % of control and the T/C [17] was 110 % of control. The T/C [18] was 104 % of control.
In the case of NC(=O)c1csc(C2OC(CO)C(O)C2O)n1 (stereo not given), the T/C (dose: 0.78 mg/kg/injection, vehicle: saline) is reported as 94 % of control, the T/C (dose: 1.56 mg/kg/injection, vehicle: saline) is reported as 109 % of control and the T/C (dose: 3.12 mg/kg/injection, vehicle: saline) is reported as 108 % of control. For the same molecule, the T/C [15] was 119 % of control, the T/C [19] was 155 % of control and 158 % of control and the T/C [16] was 284 % of control. For the same molecule, the T/C [1] was 240 % of control and 348 % of control and 355 % of control, the T/C [2] was 240 % of control and 348 % of control and 355 % of control and the T/C (dose: 62.5 mg/kg/injection, vehicle: water) was 295 % of control. The T/C [11] was 240 % of control and 348 % of control and 355 % of control, the T/C (dose: 125.0 mg/kg/injection, vehicle: water) was 295 % of control and the T/C [12] was 240 % of control and 348 % of control and 355 % of control. The T/C (dose: 250.0 mg/kg/injection, vehicle: water) was 295 % of control, the T/C [13] was 240 % of control and 348 % of control and 355 % of control and the T/C (dose: 500.0 mg/kg/injection, vehicle: water) was 295 % of control. For the same molecule, the T/C [14] was 240 % of control and the T/C (dose: 1000.0 mg/kg/injection, vehicle: water) was 295 % of control.
For CC(=O)Oc1c[nH]c(=O)[nH]c1=O, the T/C (dose: 12.5 mg/kg/injection, vehicle: distilled water + Tween-80) was 102 % of control, the T/C (dose: 25.0 mg/kg/injection, vehicle: distilled water + Tween-80) was 95 % of control and the T/C (dose: 50.0 mg/kg/injection, vehicle: distilled water + Tween-80) was 92 % of control. The T/C (dose: 100.0 mg/kg/injection, vehicle: distilled water + Tween-80) was 100 % of control, the T/C (dose: 200.0 mg/kg/injection, vehicle: distilled water + Tween-80) was 95 % of control and the T/C (dose: 400.0 mg/kg/injection, vehicle: distilled water + Tween-80) was 94 % of control.
CC[C@@]1(O)C(=O)OCc2c1cc1n(c2=O)Cc2cc3ccccc3nc2-1 was tested, and the T/C (dose: 0.37 mg/kg/injection, vehicle: saline with Tween-80) was 102 % of control, the T/C (dose: 0.75 mg/kg/injection, vehicle: saline with Tween-80) was 105 % of control and the T/C (dose: 1.5 mg/kg/injection, vehicle: saline with Tween-80) was 122 % of control.
C[C@]12CCC(=O)C=C1CC[C@@H]1[C@@H]2[C@@H](O)C[C@@]2(C)[C@H]1CC[C@]2(O)C(=O)CO was tested, and the T/C [3] was 110 % of control, the T/C [4] was 107 % of control and the T/C [5] was 97 % of control. For the same molecule, the T/C [6] was 106 % of control and the T/C [20] was 100 % of control.
In the case of Nc1ccc(Cn2ccc3c4c(N)nc(N)nc4ccc32)cc1, the T/C (dose: 1.25 mg/kg/injection, vehicle: saline with Tween-80) is reported as 105 % of control, the T/C (dose: 2.5 mg/kg/injection, vehicle: saline with Tween-80) is reported as 107 % of control and the T/C (dose: 5.0 mg/kg/injection, vehicle: saline with Tween-80) is reported as 107 % of control. For the same molecule, the T/C (dose: 10.0 mg/kg/injection, vehicle: saline with Tween-80) was 108 % of control.
CCCCCCCCCCCCCCCCCC(=O)Nc1ccn(C2OC(CO)C(O)C2O)c(=O)n1 (stereo not given) was tested, and the T/C (dose: 12.5 mg/kg/injection, vehicle: suspension in saline) was 103 % of control and 109 % of control, the T/C (dose: 25.0 mg/kg/injection, vehicle: suspension in saline) was 119 % of control and the T/C (dose: 50.0 mg/kg/injection, vehicle: suspension in saline) was 160 % of control and 164 % of control.
In the case of COc1ccc2ccccc2c1C1NC(=O)c2ccccc2N1 (stereo not given), the T/C [3] is reported as 97 % of control, the T/C [4] is reported as 100 % of control and the T/C [6] is reported as 99 % of control. For the same molecule, the T/C [20] was 101 % of control and the T/C (dose: 400.0 mg/kg/injection, vehicle: Klucel (hydroxypropylcellulose) (HPC)) was 101 % of control.
In the case of Oc1ccc(CCl)c2cccnc12, the T/C [16] is reported as 105 % of control, the T/C [21] is reported as 103 % of control and the T/C [17] is reported as 103 % of control. For the same molecule, the T/C [18] was 98 % of control.
For CCn1cnc2c(=S)nc[nH]c21, the T/C [19] was 100 % of control, the T/C [21] was 99 % of control and the T/C [17] was 104 % of control.
